Values belong to the compound of their own block, whether it stands above or below them.
Legend:
[1] = system: 93 Taq polymerase variants from PD library; experiment: Standing start primer-extension assay, PD library screen; assay type: biochemical; conditions: 100 μM triphosphate, 72° C., 2 min
Protocol: (§1) Gamma-^32P-labeled primer SEQ ID 1 (2.5 pmol), cold primer SEQ ID 1 (22.5 pmol) and template SEQ ID 2 (30 pmol) were annealed by incubation at 95° C. for […] in NEB ThermoPol Reaction Buffer (20 mM Tris-HCl, 10 mM KCl, 10 mM (NH4)2SO4, 2 mM MgSO4, 0.1% TritonX-100) and slowly cooled to room temperature, followed by the addition of Taq cell-free extract (4 μL, the sole source of polymerase). Then, the mixture (final volume 10 μL) was pre-heated to 72° C. (30 sec), and the extension was initiated by adding either reversibly terminated or irreversibly terminated nucleoside triphosphates (final concentration of 100 μM) or both. After 2 mM, the reaction was quenched by 10 mM EDTA in formamide loading buffer (20 μL) and was resolved on a 14% PAGE (FIGS. 8 and 9).
(§2) 93 Taq polymerase variants from PD library (Table 1) were tested for their ability to incorporate TTP-ONH2. Co-Taq polymerase and the Taq polymerase from New England Biolabs were also tested in parallel as controls. […] Of these variants, eight extended the primer by more than 50% to N+1, performing better than Co-Taq.
To explore the potential of these variant polymerases to incorporate the corresponding 2′-, 3′-dideoxynucleotide, they were challenged with ddTTP (FIG. 9). A total of 27 variant polymerases were able to incorporate ddTTP to a detectable extent, while three of these variants converted more than 50% of the primer to n+1 product.

[2] = biological target: Terminal Transferase (TdT) (Bos taurus, UniProt P06526); experiment: Tailing of reversible terminators using terminal transferase; assay type: biochemical; conditions: 5 μM to 250 μM terminator, 37° C., 1 hour, 8% PAGE
Sequence of Terminal Transferase (TdT) (P06526 whole entry): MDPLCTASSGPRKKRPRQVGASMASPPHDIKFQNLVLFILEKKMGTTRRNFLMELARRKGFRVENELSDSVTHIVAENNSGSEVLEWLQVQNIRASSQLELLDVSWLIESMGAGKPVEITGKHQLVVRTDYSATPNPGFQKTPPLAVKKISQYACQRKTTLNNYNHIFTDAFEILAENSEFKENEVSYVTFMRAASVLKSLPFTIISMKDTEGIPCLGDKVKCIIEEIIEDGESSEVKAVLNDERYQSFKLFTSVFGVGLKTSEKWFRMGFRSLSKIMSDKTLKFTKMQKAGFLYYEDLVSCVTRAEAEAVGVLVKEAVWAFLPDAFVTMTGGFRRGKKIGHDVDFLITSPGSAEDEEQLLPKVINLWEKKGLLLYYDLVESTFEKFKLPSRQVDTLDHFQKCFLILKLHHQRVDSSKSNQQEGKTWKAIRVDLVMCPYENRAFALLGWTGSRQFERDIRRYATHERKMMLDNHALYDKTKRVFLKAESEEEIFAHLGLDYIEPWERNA
Protocol: The oligonucleotide SEQ ID 1 was ^32P-5′ labeled using OptiKinase (USB Corporation). Pyrimidine tailing buffer reactions (20 μL) contained 100 mM cacodylate buffer (pH 7.1), 2 mM CoCl2, 0.1 mM DTT, […] of radiolabeled template (0.5 μM), 10 units of Terminal Transferase (TdT), and varying amounts of reversible terminator from 5 μM to 250 μM. Samples were incubated at 37° C. for 1 hour and were terminated by heating at 70° C. for 10 min. Samples were resolved on 8% PAGE. […] If treated with TdT and a composition of the instant invention, the ssDNA would be derivatized with a 3′-ONH2 group. This could then be captured by an aldehyde affixed to a solid support.

[3] = biological target: T1, PD-42 (Taq A597T, L616A, F667Y, E745H) (Thermus aquaticus, UniProt P19821, A597T/E745H/F667Y/L616A); experiment: Primer extension / fidelity test with PD-42; assay type: biochemical; conditions: 100 μM, 72° C.
T1 construct: made in house; pASK-IBA43plus vector
T1 sequence (P19821 whole entry A597T/L616A/F667Y/E745H): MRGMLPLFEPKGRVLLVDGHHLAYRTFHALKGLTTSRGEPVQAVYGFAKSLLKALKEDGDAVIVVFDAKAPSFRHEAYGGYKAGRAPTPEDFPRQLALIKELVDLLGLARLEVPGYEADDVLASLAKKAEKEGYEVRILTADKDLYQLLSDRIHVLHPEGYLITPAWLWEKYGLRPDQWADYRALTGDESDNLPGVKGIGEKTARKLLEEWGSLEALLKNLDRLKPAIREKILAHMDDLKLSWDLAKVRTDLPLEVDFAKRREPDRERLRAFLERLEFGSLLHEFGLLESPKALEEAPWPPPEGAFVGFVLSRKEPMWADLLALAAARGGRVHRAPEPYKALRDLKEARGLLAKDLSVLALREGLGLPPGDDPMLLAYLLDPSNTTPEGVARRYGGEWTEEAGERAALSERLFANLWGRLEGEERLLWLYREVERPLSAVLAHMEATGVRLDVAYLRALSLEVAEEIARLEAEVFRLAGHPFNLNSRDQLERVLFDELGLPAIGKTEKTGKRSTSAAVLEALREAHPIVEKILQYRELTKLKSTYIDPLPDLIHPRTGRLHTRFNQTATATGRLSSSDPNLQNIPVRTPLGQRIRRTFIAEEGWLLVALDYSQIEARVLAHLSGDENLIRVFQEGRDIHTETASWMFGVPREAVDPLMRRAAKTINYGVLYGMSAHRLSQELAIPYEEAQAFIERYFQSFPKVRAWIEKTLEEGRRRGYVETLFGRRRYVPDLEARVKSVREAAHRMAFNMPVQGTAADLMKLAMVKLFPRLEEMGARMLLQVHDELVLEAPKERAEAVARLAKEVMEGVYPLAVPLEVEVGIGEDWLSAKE
Protocol: as §1
In a 10 μL reaction volume, γ^32P-labeled primer SEQ ID 1([…]), cold primer SEQ ID 1 ([…]) and four kinds of 36 nt long template ([…]) (see above) were annealed respectively by incubation at 95° C. for 5 min and slow cooled to room temperature. 1 (0.25 μg/μL) of PD-42 and 58 (polymerases were purified by Qiagen Ni-NTA Spin Kit) were then added to reactions and incubated at 72° C. for 2 min. Reactions were initiated by the addition of dNTP-ONH2 or ddNTP (Final concentration of 100 μM) (refer to FIG. 13 for specifics) and were resolved on a 14% PAGE.
Two of the 93 variants that performed well with both dTTP-3′-ONH2 and ddTTP were further examined: PD-42 (A597T, L616A, F667Y, E745H) and PD-58 (E520G, K540I, L616A).

[4] = Treatment of natural nucleosides with aqueous nitrous acid (control, decomposition by HPLC); assay type: physicochemical; conditions: 700 mM NaNO2, 1 M NaOAc, pH 5.5, room temperature; for oxidation 2 min (extrapolated): extrapolated to 2 min
Protocol: (§3) To an aqueous solution of 3′-O-aminothymidine (1b, 20 mM, 2 μL) was added aqueous nitrous acid (350-700 mM NaNO2/1 M NaOAc, 50 μL, pH 5.5-5.75). The resulting pH was measured with a microelectrode (accuracy ca. ±0.02). After 1 or 2 min at room temperature, the reaction was quenched by the addition of K-phosphate buffer (1 M, 200 μL, pH 7), and analyzed by analytical reverse-phase HPLC (Waters NovaPak C-18 4 μm, 3.9×150 mm, with guard column Waters NovaPak C-18 4 μm, 3.9×15 mm, eluent A=25 mM TEAA pH 7, eluent B=acetonitrile, gradient from 3% B to 13% B in 20 min, flow rate=0.5 mL/min, Rt=product: 8 min; starting material: 11 min.). The amount of cleavage was determined by integrating (267 nm) the peaks of the remaining 1b and the product (thymidine). The rates are as follows: As control, the natural nucleosides were treated as follows: An aqueous solution of 2′-deoxyguanosine or 2′-deoxyadenosine or 2′-deoxycytidine (20 mM, 30 μL) was treated with aqueous nitrous acid (700 mM NaNO2, 1 M NaOAc, pH 5.5, 500 μL) at room temperature for 72 h (i.e. 4320 min). An aliquot (50 μL) was removed, neutralized by the addition of K-phosphate buffer (1 M, 200 μL, pH 7), and analyzed by analytical reverse-phase HPLC (Waters NovaPak C-18 4 μm, 3.9×150 mm, with guard column Waters NovaPak C-18 4 μm, 3.9×15 mm. eluent A=25 mM TEAA pH 7, eluent B=acetonitrile, gradient from 0% B to 3% B in 10 min, then to 30% B in 20 min, flow rate=0.5 mL/min, Rt=dG: 14 min, dA: 18 min, dC: 8 min). The amount of decomposition was determined by integrating (260 nm) the peaks of the remaining starting material (nucleoside) and the product(s).

[5] = biological target: T2, Taq polymerase from New England Biolabs (Thermus aquaticus, UniProt P19821); experiment: Standing start primer-extension assay; assay type: biochemical; conditions: 100 μM triphosphate, 72° C., 2 min
T2 construct: purchased New England Biolabs
T2 sequence (P19821 whole entry): as the sequence (P19821 whole entry A597T/L616A/F667Y/E745H) above, with T597A, A616L, Y667F, H745E counted along it
Protocol: as §1, §2

[6] = biological target: T3, PD-58 (E520G, K540I, L616A) (Thermus aquaticus, UniProt P19821, E520G/K540I/L616A); experiment: Primer extension / fidelity test with PD-58; assay type: biochemical; conditions: 100 μM, 72° C.
T3 construct: made in house; pASK-IBA43plus vector
T3 sequence (P19821 whole entry E520G/K540I/L616A): as the sequence (P19821 whole entry A597T/L616A/F667Y/E745H) above, with E520G, K540I, T597A, Y667F, H745E counted along it
Protocol: To determine whether HONO could cleave the 3′-terminal ONH2 group from a template-bound oligonucleotide and permit subsequent primer extension in a cycle of the type needed for sequencing using cyclic reversible termination, a 5′-biotinylated template that called for incorporation of two consecutive T's opposite the two consecutive template A′ s was used. Streptavidin on magnetic beads was used to recover products. In the first cycle, beads were incubated (72° C., 2 min) with PD-58 polymerase in the presence of T-ONH2 triphosphate (100 μM). Then, the products were treated with buffered sodium nitrite/HONO to cleave the —ONH2 group, generating a free 3′-OH group. […] This was indicated by a slower moving band arising from the reversibly terminated N+1 product.
as §1, with “After 2 mM, the reaction was quenched by 10 mM EDTA in formamide loading buffer (20 μL) and was resolved on a 14% PAGE (FIGS. 8 and 9).” left out

[7] = Cleavage of 3′-O-aminothymidine 1b with aqueous HONO and no cosolvent; assay type: physicochemical
Protocol: as §3

[8] = [HONO] 700 mM, pH 5.50, room temperature

SMILES: Cc1cn([C@H]2CC[C@@H](COP(=O)(O)OP(=O)(O)OP(=O)(O)O)O2)c(=O)[nH]c1=O [ddTTP, 2′,3′-dideoxythymidine-5′-triphosphate, reference compound]
number of variant polymerases able to incorporate to a detectable extent [1]: 27 | number of variants that extended more than 50% of the primer to N+1 [1]: three

SMILES: NO[C@H]1C[C@H](n2ccc(N)nc2=O)O[C@@H]1COP(=O)(O)OP(=O)(O)OP(=O)(O)O [dCTP-ONH2, 3′-O-Amino-2′-deoxycytidine-5′-triphosphate]
primer consumption on TdT tailing [2]: almost all of the primer was remaining | misincorporation product opposite template dC by PD-42 ([3]; PAGE): trace amounts of products

SMILES: Cc1cn([C@H]2C[C@H](ON)[C@@H](COP(=O)(O)OP(=O)(O)OP(=O)(O)O)O2)c(=O)[nH]c1=O [TTP-ONH2, 3′-O-Amino-thymidine-5′-triphosphate]
N+1 product on incorporation [5]: at most a trace of N+1 product | number of variant polymerases able to incorporate better than NEB Taq [1]: 30 | number of variants that extended more than 50% of the primer to N+1 [1]: eight | share of the PD library mutants able to incorporate better than NEB Taq [1]: 32.3% | incorporation by PD-42 ([3]; PD library screen): best incorporation | incorporation by PD-58 ([6]; PD library screen): best incorporation | primer extension and termination by PD-58 ([6]; template on streptavidin magnetic beads, 2 min): clean N+1 products

SMILES: NO[C@H]1C[C@H](n2cnc3c(N)ncnc32)O[C@@H]1COP(=O)(O)OP(=O)(O)OP(=O)(O)O [dATP-ONH2, 3′-O-Amino-2′-deoxyadenosine-5′-triphosphate]
misincorporation product opposite template A (SEQ ID 3) by PD-42 ([3]; PAGE): trace amounts of products

SMILES: Cc1cn([C@H]2C[C@H](ON)[C@@H](CO)O2)c(=O)[nH]c1=O [1b, 3′-O-aminothymidine]
cleavage 2 min ([7]; [HONO] 350 mM, pH 5.50, room temperature): 90% | cleavage 1 min [7, 8]: 98% | cleavage 2 min [7, 8]: >99% | cleavage 2 min ([7]; [HONO] 700 mM, pH 5.65, room temperature): 96%

Further lines, results first:

oxidation 72 h [4]: 20% | oxidation 2 min (extrapolated) [4]: <1/10000
SMILES: Nc1nc2c(ncn2[C@H]2C[C@H](O)[C@@H](CO)O2)c(=O)[nH]1 [dG, 2′-deoxyguanosine]

primer consumption on TdT tailing [2]: Almost all of the primer was exhausted
SMILES: NO[C@H]1C[C@H](n2cnc3c(=O)[nH]c(N)nc32)O[C@@H]1COP(=O)(O)OP(=O)(O)OP(=O)(O)O [dGTP-ONH2, 3′-O-Amino-2′-deoxyguanosine-5′-triphosphate]

oxidation 72 h [4]: 13% | oxidation 2 min (extrapolated) [4]: <1/10000
SMILES: Nc1ncnc2c1ncn2[C@H]1C[C@H](O)[C@@H](CO)O1 [dA, 2′-deoxyadenosine]

oxidation 72 h [4]: 15% | oxidation 2 min (extrapolated) [4]: <1/10000
SMILES: Nc1ccn([C@H]2C[C@H](O)[C@@H](CO)O2)c(=O)n1 [dC, 2′-deoxycytidine]
